Laboratory results taken from PubChem BioAssay (NCI).
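Test compounds were applied to cells in 96-well plates for 48 hours at 5 doses. GI50 = concentration required for 50% inhibition of growth. The concentration for full growth arrest is given as TGI.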

Experiments:
Test in all cases: NCI anticancer screen, dose series, 48 h
M14 melanoma = test system: M14 melanoma
HCC-2998 colon = test system: HCC-2998 colon
SNB-19 CNS = test system: SNB-19 CNS
LOX IMVI melanoma = test system: LOX IMVI melanoma
OVCAR-5 ovarian = test system: OVCAR-5 ovarian
CAKI-1 renal = test system: CAKI-1 renal
DU-145 prostate = test system: DU-145 prostate
SK-OV-3 ovarian = test system: SK-OV-3 ovarian
EKVX NSCLC = test system: EKVX NSCLC
HCT-116 colon = test system: HCT-116 colon

SMILES	GI50 (M14 melanoma)	TGI (M14 melanoma)	GI50 (HCC-2998 colon)	TGI (HCC-2998 colon)	GI50 (SNB-19 CNS)	TGI (SNB-19 CNS)	GI50 (LOX IMVI melanoma)	TGI (LOX IMVI melanoma)	GI50 (OVCAR-5 ovarian)	TGI (OVCAR-5 ovarian)	GI50 (CAKI-1 renal)	TGI (CAKI-1 renal)	GI50 (DU-145 prostate)	TGI (DU-145 prostate)	GI50 (SK-OV-3 ovarian)	TGI (SK-OV-3 ovarian)	GI50 (EKVX NSCLC)	TGI (EKVX NSCLC)	GI50 (HCT-116 colon)	TGI (HCT-116 colon)
CC1(C)N=C(N)N=C(N)N1c1ccc(CCc2ccc(Cl)cc2S(=O)(=O)F)c(Cl)c1	6.2 µM	> 100 µM	11.8 µM	45.9 µM	7.95 µM	> 100 µM	4.04 µM	20.6 µM	4.76 µM	> 100 µM	> 100 µM	> 100 µM	5.91 µM	> 100 µM	19.1 µM	> 100 µM	11.3 µM	> 100 µM	2.56 µM	16.2 µM
COc1ccc2c3c(c4ccccc4cc13)C(=O)N(CCN(C)CCN)C2=O	0.0599 µM	1.32 µM	0.182 µM	1.65 µM	0.0692 µM	1.27 µM	0.0446 µM	0.381 µM	0.293 µM	1.54 µM	0.0541 µM	2.82 µM	0.0663 µM	1.04 µM	0.0692 µM	0.806 µM	0.538 µM	2.06 µM	0.0312 µM	1.17 µM
O=C1NC(=O)C(c2ccc(Cl)cc2)=C1Nc1ccc(Cl)c(C(=O)O)c1	> 25 µM	> 25 µM	> 25 µM	> 25 µM	> 25 µM	> 25 µM	> 25 µM	> 25 µM	> 25 µM	> 25 µM	> 25 µM	> 25 µM	> 25 µM	> 25 µM	> 25 µM	> 25 µM	> 25 µM	> 25 µM	> 25 µM	> 25 µM
O=C(Nc1ccc2[nH]c(C(=O)N3CC(CCl)c4c3cc([N+](=O)[O-])c3ccccc43)cc2c1)c1cc2ccccc2o1 (stereo unspecified)	> 1100 µM	> 1100 µM	57.7 µM	> 1100 µM	> 1100 µM	> 1100 µM	> 1100 µM	> 1100 µM	> 1100 µM	> 1100 µM	> 1100 µM	> 1100 µM	> 1100 µM	> 1100 µM	> 1100 µM	> 1100 µM	> 1100 µM	> 1100 µM	> 1100 µM	> 1100 µM
O=C(NCCCCCCNC(=O)n1cc(F)c(=O)[nH]c1=O)NCCCOCCOCCOCCOCCOCCOCCOCCOCCOCCOCCOCCOCCOCCOCCOCCOCCOCCOCCOCCOCCOCCCNC(=O)C(O)C(O)C(OC1OC(CO)C(O)C(O)C1O)C(O)CO (stereo unspecified)	–	> 100 µM	–	> 87.2 µM	–	> 100 µM	–	> 100 µM	–	> 100 µM	–	> 100 µM	–	> 100 µM	–	> 100 µM	–	> 100 µM	–	> 100 µM
CN[C@@H]1C[C@H]2O[C@@](C)([C@@H]1OC)n1c3ccccc3c3c4c(c5c6ccccc6n2c5c31)C(=O)N[C@H]4O	–	> 3.69 µM	0.0722 µM	0.974 µM	0.0958 µM	0.722 µM	–	1.09 µM	–	–	0.00463 µM	0.0305 µM	0.0448 µM	> 5.9 µM	0.0337 µM	0.298 µM	0.059 µM	> 10 µM	0.166 µM	1.89 µM
